{"source": "patent US5665764A", "about": "“Tricyclic inhibitors of matrix metalloproteinases” (Warner-Lambert Company, priority 1995, dated 1997)", "key": {"[1]": {"target": "GCD (recombinant gelatinase A catalytic domain)", "test": "Inhibition of thiopeptolide substrate conversion by GCD", "type": "biochemical", "conditions": "thiopeptolide substrate Ac-Pro-Leu-Gly-thioester-Leu-Leu-Gly-OEt", "source_text": "Matrix metalloproteinases share high sequence hemology and the catalytic domains of each of the MMPs can be identified by sequence alignment. The gene for the catalytic domain of stromelysin-1, SCD, was constructed by removing the propeptide and C-terminal domain (Ye Q.-Z., Johnson L. L, Hupe D. J., and Baragi V., \"Purification and Characterization of the Human Stromelysin Catalytic Domain Expressed in Escherichia coli\", Biochemistry,1992;31:11231-11235). The gelatinase A catalytic domain, GCD, was similarly constructed with the additional removal of the fibronectin-like insert which interrupts the catalytic domain (Ye Q.-Z., Johnson L. L., Yu A. E., and Hupe D., \"Reconstructed 19 kDa Catalytic Domain of Gelatinase A is an Active Proteinase\", Biochemistry, 1995;34:4702-4708). Both truncated proteins cleave synthetic peptide substrates and the natural substrates proteoglycan and gelatin in a manner similar to the full-length enzymes and can be used to identify matrix metalloproteinase inhibitors.\nExperiments were carried out with both the full-length enzymes and the catalytic domains. […] IC50 values were determined using a thiopeptolide substrate, Ac-Pro-Leu-Gly-thioester-Leu-Leu-Gly-OEt (Ye Q.-Z., Johnson L. L., Hupe D. J., and Baragi V., \"Purification and Characterization of the Human Stromelysin Catalytic Domain Expressed in Escherichia coli\", Biochemistry,1992;31:11231-11235). […]"}, "[2]": {"system": "experimental allergic encephalomyelitis (EAE)", "test": "EAE Lewis rat acute model, Protocol 1 (daily oral dosing)", "type": "in vivo, female Lewis rats", "experimental": "(§1) The activity of Example 2 in suppressing the inflammatory disease associated with EAE was tested using the Lewis rat acute model. Female Lewis rats were purchased from Harlan Sprague-Dawley (Indianapolis, Ind.) and were used at 8 to 10 weeks of age. Active EAE was induced by injection of 0.05 mL emulsion of myelin basic protein (MBP) with complete Freund's adjuvant (CFA), containing 25 μg guinea pig MBP and 100 μg Mycobacterium butyricum (Difco Laboratories, Detroit, Mich.) into one hind footpad. Immunized rats were observed daily for clinical signs of EAE and scored as follows: 0, no symptoms; 1, loss of tail tonicity; 2, paresis; 3, hind limb paralysis, often accompanied by incontinence; and 4, death. Formalin-fixed brain slice sections were stained with hematoxylin-eosin and evaluated microscopically for perivascular and parenchymal infiltration. Compound was administered by gavage as a solution in sterile saline in a volume of 500 μL. The dose of 50 mg/kg typically required 7.5 mg of compound per rat. Several different protocols were used to define the efficacy and timing retirements for potency.\nProtocol 1: Compound was administered daily at 50 mg/kg beginning on Day 0 and continuing through Day 14, with MBP in CFA administered on Day 0 also. […] The percentage of animals responding is also very high with 100% of treated animals-showing either a total inhibition of symptoms (80%) or reduction of symptoms (20%). N=5 for all groups."}, "[3]": {"system": "experimental allergic encephalomyelitis (EAE)", "test": "EAE Lewis rat acute model, Protocol 2 (alternate day dosing)", "type": "in vivo, female Lewis rats", "conditions": "for Effect on EAE Rats (≥ Paresis/Total): CFA + MBP, PBS control 5/7", "experimental": "as §1\nProtocol 2: To determine whether less frequent dosing or dosing at lower levels was still effective at suppressing EAE, compound was administered at either 50 mg/kg or at 10 mg/kg on Day 0 and on alternate days through Day 14. […] Controls run in parallel included CFA only and MBP in CFA. N=4 for treatment groups. N=8 for controls."}, "[4]": {"system": "leukocyte migration across the blood-brain barrier", "test": "Histology of brain slices from EAE rats, Protocol 1", "type": "in vivo, Lewis rat", "conditions": "50 mg/kg daily", "experimental": "as §1"}, "[5]": {"system": "Mycobacterium footpad edema", "test": "Mycobacterium footpad edema assay (MFE)", "type": "in vivo, male Wistar rats", "conditions": "daily, third day, statistically significant", "experimental": "The activity of Example 2 as a general inhibitor of inflammation was tested using the Mycobacterium footpad edema assay (MFE) in Wistar rats. Compound was administered daily by gavage at 2 mg/kg, 10 mg/kg, or 50 mg/kg.\nMale outbred Wistar rats (110-125 g, Charles River Labs, Portage, Mich.) were used in this study. Rats were housed for a minimum of 1 week before use. Food and water were supplied ad libitum. Foot pad edema was induced following the method described by Martel R. R. and Klicius J., \"Comparisons in rats of the anti-inflammatory and gastric irritant effects of etodolac with several clinically effective antiinflammatory drugs\", Agents and Actions, 1982;12:295. Briefly, male Wistar rats were injected subcutaneously into the right hind footpad with 0.1 mL of 5 mg/mL suspension of killed and dried Mycobacterium butyricum (Difco, Detroit, Mich.) in liquid paraffin. Compound was suspended in 0.5% hydroxypropylmethylcellulose (HPMC) containing 0.2% Tween-80 and administered orally 1 hour before injection. Subsequent doses of the compound were given 24 and 48 hours after the Mycobacterium. Control animals were given vehicle alone. Swelling was assessed on the third day by subtracting the initial volume (determined immediately following the Mycobacterium injection) from the final volume of the treated paw. Paw volume was determined by mercury plethysmography. The percent inhibition of edema achieved in each compound-treated group was determined by comparison with swelling in the vehicle-treated group and the ID50 values were determined by regression analysis. Statistical significance between experimental groups was evaluated using a Student's t-test."}, "Plasma concentrations": {"test": "Plasma concentrations", "type": "in vivo"}, "[6]": {"system": "experimental allergic encephalomyelitis (EAE)", "conditions": "dose dependent; Gijbels et al. 1994; cited from earlier work"}, "[7]": {"system": "bovine nasal and pig articular cartilage", "conditions": "Andrews et al. 1992; Ellis et al. 1994; cited from earlier work"}}, "data": [{"compound": "O=C(O)CCC(=NO)c1ccc2oc3ccccc3c2c1", "note": "[Example 2, 4-Dibenzofuran-2-yl-4-hydroximino-butyric acid]", "values": [{"measurement": "IC50", "setting": "[1]", "value": 40, "unit": "nM"}, {"measurement": "effect on average scores for the treated group", "setting": "[2]; 50 mg/kg daily, Day 0-14", "value": "substantially reduced the average scores"}, {"measurement": "treated animals showing either a total inhibition of symptoms or reduction of symptoms", "setting": "[2]; 50 mg/kg daily, Day 0-14, N=5", "value": 100, "unit": "%"}, {"measurement": "Day of Peak", "setting": "[2]; CFA + MBP, 50 mg/kg daily oral from Day 0", "value": 12, "unit": "days"}, {"measurement": "Clinical Grade at Peak of Disease Expression", "setting": "[2]; CFA + MBP, 50 mg/kg daily oral from Day 0, N=5, SD 1.22, PBS control 3.0", "value": 1.0}, {"measurement": "Effect on EAE Rats (≥ Paresis/Total)", "setting": "[2]; CFA + MBP, 50 mg/kg daily oral from Day 0, PBS control 5/5", "value": "1/5"}, {"measurement": "Effect on EAE Rats (≥ Paresis/Total)", "setting": "[2]; CFA without MBP, 50 mg/kg daily oral from Day 0", "value": "0/5"}, {"measurement": "Clinical Grade at Peak of Disease Expression", "setting": "[2]; CFA without MBP, 50 mg/kg daily oral from Day 0, N=5, SD 0", "value": 0}, {"measurement": "Effect on EAE Rats (≥ Paresis/Total)", "setting": "[3]; 10 mg/kg alternate days", "value": "0/4"}, {"measurement": "Effect on EAE Rats (≥ Paresis/Total)", "setting": "[3]; 50 mg/kg alternate days", "value": "0/4"}, {"measurement": "decrease in disease severity, significance", "setting": "[3]; Day 15, p≤0.01, 10 or 50 mg/kg alternate days", "value": "highly significant"}, {"measurement": "CNS inflammation", "setting": "[4]", "value": "little CNS inflammation"}, {"measurement": "cuff formation", "setting": "[4]", "value": "no cuff formation"}, {"measurement": "leukocyte migration across the blood-brain barrier", "setting": "[4]", "value": "completely prevented"}, {"measurement": "% Inhibition of Swelling", "setting": "[5]; 2 mg/kg oral", "value": 23, "unit": "%"}, {"measurement": "% Inhibition of Swelling", "setting": "[5]; 10 mg/kg oral", "value": 27, "unit": "%"}, {"measurement": "% Inhibition of Swelling", "setting": "[5]; 50 mg/kg oral", "value": 40, "unit": "%"}, {"measurement": "Cmax and AUC(0-b 4) versus dose", "setting": "Plasma concentrations; 2, 10, 50 mg/kg", "value": "increase proportionately with dose"}, {"measurement": "bioavailability versus effective range in vitro", "setting": "Plasma concentrations; effective range of gelatinase A and stromelysin-1 inhibition in the in vitro assays", "value": "well in excess of the effective range of gelatinase A and stromelysin-1 inhibition"}]}, {"compound": "CNC(=O)[C@H](Cc1c[nH]c2ccccc12)NC(=O)[C@@H](CC(=O)NO)CC(C)C", "note": "[GM6001]", "values": [{"measurement": "clinical expression/development of EAE", "setting": "[6]", "value": "suppressed the development or reversed the clinical expression"}]}, {"compound": "TIMP-1: natural endogenous inhibitors of MMPs (TIMPs)", "values": [{"measurement": "formation of collagen fragments", "setting": "[7]", "value": "prevented the formation of collagen fragments"}]}]}
